ChEMBL document CHEMBL1177853, “Synthesis and pharmacological evaluation of novel substituted 9-deazaxanthines as A2B receptor antagonists” (Eur J Med Chem, 2010)
pKi: −log10 of the molar value.

How the values were obtained:
Adenosine receptor A2b = target: T1, Adenosine receptor A2b (Homo sapiens, UniProt P29275); experiment: Displacement of [3H]DPCPX from human recombinant adenosine A2B receptor expressed in HEK293 cells after 30 mins; format: cell-based
T1 sequence (P29275 whole entry): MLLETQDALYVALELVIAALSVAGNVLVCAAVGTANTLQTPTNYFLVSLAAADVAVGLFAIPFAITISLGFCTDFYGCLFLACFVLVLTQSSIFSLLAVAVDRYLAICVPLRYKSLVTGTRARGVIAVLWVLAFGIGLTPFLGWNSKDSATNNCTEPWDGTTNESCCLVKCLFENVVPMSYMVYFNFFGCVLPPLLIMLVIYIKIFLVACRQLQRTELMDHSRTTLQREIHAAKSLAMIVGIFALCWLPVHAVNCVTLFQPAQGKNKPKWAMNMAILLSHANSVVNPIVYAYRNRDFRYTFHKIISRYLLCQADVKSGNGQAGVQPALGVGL

Adenosine receptor A2a [1] = target: T2, Adenosine receptor A2a (Homo sapiens, UniProt P29274); experiment: Displacement of [3H]ZM241385 from human recombinant adenosine A2A receptor expressed in human HeLa cells at 1 uM after 30 mins; format: cell-based
T2 sequence (P29274 whole entry): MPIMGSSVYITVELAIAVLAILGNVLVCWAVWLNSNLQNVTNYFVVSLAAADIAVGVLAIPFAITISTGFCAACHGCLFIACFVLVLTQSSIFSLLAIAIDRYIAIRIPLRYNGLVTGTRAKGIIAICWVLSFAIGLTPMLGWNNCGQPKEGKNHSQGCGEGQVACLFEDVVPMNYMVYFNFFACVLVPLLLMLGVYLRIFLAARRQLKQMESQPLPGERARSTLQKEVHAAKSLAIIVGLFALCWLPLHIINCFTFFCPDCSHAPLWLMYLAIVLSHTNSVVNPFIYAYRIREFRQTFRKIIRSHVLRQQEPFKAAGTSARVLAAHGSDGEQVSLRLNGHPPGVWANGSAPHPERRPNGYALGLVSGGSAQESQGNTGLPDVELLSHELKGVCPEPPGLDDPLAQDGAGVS

[2] = target: T3, Adenosine receptor A1 (Homo sapiens) (UniProt P30542); experiment: Displacement of [3H]DPCPX from human recombinant adenosine A1 receptor expressed in CHO-A1 cells at 1 uM after 60 mins; format: cell-based
T3 sequence (whole entry): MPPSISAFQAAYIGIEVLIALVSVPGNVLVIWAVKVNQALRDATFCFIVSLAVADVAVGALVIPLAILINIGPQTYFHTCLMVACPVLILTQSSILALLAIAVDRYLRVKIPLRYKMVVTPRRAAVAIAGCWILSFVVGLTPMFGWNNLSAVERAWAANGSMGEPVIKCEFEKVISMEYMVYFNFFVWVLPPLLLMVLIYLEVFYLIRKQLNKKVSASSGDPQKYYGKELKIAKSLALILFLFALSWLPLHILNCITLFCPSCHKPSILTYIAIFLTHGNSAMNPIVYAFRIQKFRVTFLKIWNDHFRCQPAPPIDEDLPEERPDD

[3] = target: T4, Adenosine receptor A3 (Homo sapiens) (UniProt P0DMS8); experiment: Displacement of [3H]NECA from human recombinant adenosine A3 receptor expressed in human HeLa cells at 1 uM after 180 mins by scintillation counting; format: cell-based
T4 sequence (whole entry): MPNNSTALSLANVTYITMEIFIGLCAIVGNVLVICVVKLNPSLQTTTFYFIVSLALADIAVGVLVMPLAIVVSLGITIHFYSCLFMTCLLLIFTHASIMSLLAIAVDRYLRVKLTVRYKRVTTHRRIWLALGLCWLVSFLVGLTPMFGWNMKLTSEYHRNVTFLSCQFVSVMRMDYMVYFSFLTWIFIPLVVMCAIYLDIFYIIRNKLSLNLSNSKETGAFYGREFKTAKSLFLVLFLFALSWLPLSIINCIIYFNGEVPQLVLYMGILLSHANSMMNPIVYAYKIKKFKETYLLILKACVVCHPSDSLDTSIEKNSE

Adenosine receptor A2a [4] = target: T2, Adenosine receptor A2a; experiment: Displacement of [3H]ZM241385 from human recombinant adenosine A2A receptor expressed in human HeLa cells after 30 mins; format: cell-based
Adenosine receptor A1 = target: T5, Adenosine receptor A1 (Homo sapiens, UniProt P30542); experiment: Displacement of [3H]DPCPX from human recombinant adenosine A1 receptor expressed in CHO-A1 cells after 60 mins; format: cell-based
T5 sequence (P30542 whole entry): T3 sequence (whole entry)

Homo sapiens [5] = organism: Homo sapiens; experiment: Selectivity ratio of Ki for human recombinant adenosine A2B receptor to Ki for human recombinant adenosine A2A receptor
Homo sapiens [6] = organism: Homo sapiens; experiment: Selectivity ratio of Ki for human recombinant adenosine A2B receptor to Ki for human recombinant adenosine A1 receptor
[7] = target: T6, Adenosine receptor A2b (Homo sapiens) (UniProt P29275); experiment: Displacement of [3H]DPCPX from human recombinant adenosine A2B receptor expressed in HEK293 cells at 1 uM after 30 mins; format: cell-based
T6 sequence (whole entry): T1 sequence (P29275 whole entry)

pKi (Adenosine receptor A2b)	inhibition (Adenosine receptor A2a [1])	inhibition [2]	inhibition [3]	pKi (Adenosine receptor A2a [4])	pKi (Adenosine receptor A1)	Ratio pKi (Homo sapiens [5])	Ratio pKi (Homo sapiens [6])	inhibition [7]	SMILES
7.50	11%	21%	2%						CCCn1c(=O)[nH]c2cc(-c3ccc(OCc4nc(-c5ccc(Br)cc5)no4)cc3)[nH]c2c1=O
8.63			2%	5.19	7.12	2750	32.4		CCCn1c(=O)[nH]c2cc(-c3ccc(OCC(=O)Nc4ccc(F)cc4)cc3)[nH]c2c1=O
7.66	22%	41%	28%						CCCn1c(=O)[nH]c(=O)c2[nH]c(-c3ccc(OCC(=O)Nc4ccc(Br)cc4)cc3)cc21
7.10	12%	9%	1%						CCCn1c(=O)[nH]c(=O)c2[nH]c(-c3ccc(OCC(=O)N4CCc5ccccc5C4)cc3)cc21
7.51	11%		6%				5.89		CCCn1c(=O)c2c(cc(-c3ccc(OCC(=O)Nc4ccc(F)cc4)cc3)n2C)n(C)c1=O
	22%	22%	2%					36%	CCCn1c(=O)c2c(cc(-c3ccc(OCC(=O)N4CCN(c5ccccc5)CC4)cc3)n2C)n(CCC)c1=O
7.39		36%	3%	6.15	6.74	17.4			COc1cc(OCc2nc(-c3ccc(Br)cc3)no2)ccc1-c1cc2c([nH]1)c(=O)n(C)c(=O)n2C
7.00	36%	2%	3%						CCCn1c(=O)[nH]c(=O)c2[nH]c(-c3ccc(OCC(=O)Nc4ccc(F)cc4)cc3)cc21
5.98	17%	0.5%	1%						CCCn1c(=O)[nH]c(=O)c2[nH]c(-c3ccc(OCC(=O)Nc4ccccc4)cc3)cc21
8.45	43%		14%		8.76		0.49		CCCn1c(=O)[nH]c2cc(-c3ccc(OCC(=O)Nc4ccc(Br)cc4)cc3)[nH]c2c1=O
	15%	9%	1%					20%	CCCn1c(=O)c2c(cc(-c3ccc(OCC(=O)Nc4ccc(F)cc4)cc3)n2C)n(CCC)c1=O
7.01	29%	19%	9%						CCCn1c(=O)c2c(cc(-c3ccc(OCC(=O)N4CCc5ccccc5C4)cc3)n2C)n(CCC)c1=O
6.94	33%	23%	15%						CCCn1c(=O)[nH]c(=O)c2[nH]c(-c3ccc(OCC(=O)N4CCN(c5ccccc5)CC4)cc3)cc21
